Laboratory results reported in US6998144B2, “Method of improving sweetness delivery of sucralose” (McNeil-PPC, Inc., priority 1998, dated 2006).
Residues, ends and D or L forms follow the SMILES beside them.

How the values were obtained:
[1] = test system: trained panelists; assay: Sweetness time-intensity study of equally sweet solutions, 12 trained panelists; format: in vivo
Protocol: The data in Table 1 (“STIME”) in the Examples below correlate with the curves shown in this Figure. Imax: maximum intensity recorded. Tmax: first time that maximum intensity was recorded. Tend: last time that a non-zero intensity was recorded. Tdec50: last time that an intensity greater than 50% of Imax was recorded (i.e. the time at which the intensity had decreased to 50% of Imax). Tdec10: same as for Tdec50, but at 10% of Imax. Area: area under the curve. Tdecline: time interval from Tmax to Tdec10. The experiments giving rise to the data in this Figure and Table 1 are described in Example 1 below.
The data in Table 2 (“ATIME”) in the Examples below correlate with the curves shown in this Figure. These curve parameters, as shown in the Table, are defined as per those in FIG. 1. The experiments giving rise to the data in this Figure are described in Example 1 below.
For sweetness time-intensity studies, room temperature equally sweet solutions were presented to 12 trained panelists. The panelists had been screened for general sensory acuity and trained in general methods for sweetener assessment as well as time-intensity methods. […]
The data collected by the computer were read every second, for a total of 180 data points per tasting. Mean panelist response was calculated for each time data point. […]

[2] = test system: trained evaluators; assay: Determination of equally sweet levels in bottled water by a panel of six trained evaluators; format: in vivo; details: for equally sweet level: sweetener alone in bottled water
Text: A panel of six trained evaluators determined equally sweet levels of sucralose, sucralose+DHB, aspartame, and aspartame+DHB, all in bottled water. […] Previous evaluations had shown 15 ppm DHB as optimal for taste alteration in sucralose products. Greater than 50 ppm DHB, in pure water solutions, has a slightly sweet taste and contributes to the total taste of the solution.

Row | SMILES | sweetness delivery profile of aspartame ([1]; effect of DHB on aspartame) | length of time during which sucralose sweetness is perceived ([1]; effect of DHB on sucralose) | DHB level that has a slightly sweet taste and contributes to the total taste ([2]; pure water solutions) | DHB level optimal for taste alteration ([2]; sucralose products, previous evaluations) | equally sweet level [2]
1 | O=C(O)c1ccc(O)cc1O [DHB, 2,4-dihydroxybenzoic acid] | does not alter | significantly reduces | Greater than 50 ppm | 15 ppm | 
2 | OC[C@H]1O[C@H](O[C@]2(CCl)O[C@H](CCl)[C@@H](O)[C@@H]2O)[C@H](O)[C@@H](O)[C@H]1Cl [Sample 1, 1,6-dichloro-1,6-dideoxy-β-D-fructofuranosyl-4-chloro-4-deoxy-α-D-galactopyranoside, reference compound] |  |  |  |  | 200 ppm
3 | COC(=O)[C@H](Cc1ccccc1)NC(=O)[C@@H](N)CC(=O)O [Sample 1, N-L-α-aspartyl-L-phenylalanine methyl ester, reference compound] (H-Asp-Phe-OMe) |  |  |  |  | 550 ppm
